≈ marks a conversion by molar mass, not a printed value. Entries after “also recorded” stand apart in the source; their conditions may differ. Read-outs that look alike come from different tables or passages of the source.
Legend:
[1] = tested on: B16F0 mouse melanoma cells; assay: Matrigel cell invasion assay; format: cell-based; conditions: 24 h
Experimental: The inhibitory effects of DTIC and compound 1 on invasive ability of B16F0 were tested in cell invasion assay performed with by using Matrigel (BME-Cultrex®, R&D Systems, USA) coated cell culture inserts (Becton Dickinson, USA) with 8 μm-pore membrane. Equal number (fifty thousands) of B16F0 cells were applied in each insert well and allowed to attach for 2 h at 37° C. and in presence of 5% CO2. Thereafter, the cellular invasion through the matrigel layer was performed in presence or absence of test compounds. Either 100 μg/ml of DTIC or 20 μg/ml of Compound 1 was applied in the lower chamber of the invasion assembly. 0.1% DMSO was applied in the vehicle control culture chambers. After 24 h treatment, the matrigel layer containing cells was removed with cotton plug and the invaded cells on the other side of the membrane were fixed with methanol for 5 min and then stained with Giemsa. The stained membrane was mounted on a glass slide and number invaded cells were counted in 20 random fields (20× objective) under a light microscope (Nikon Eclipse TS 100).

[2] = tested on: HS.531.sk normal human skin epithelial cells; format: cell-based; conditions: 3 days
Experimental: (§1) MTT [3-(4,5-dimethylthiazol-2-yl)-2,5-diphenyltetrazolium bromide] incorporation based cell proliferation assay was performed using standard procedure. The cytotoxic efficacies of the various selenopheno triazene compounds (compounds 1 to 16) was evaluated in both human malignant melanoma A375 cells and mouse malignant melanoma B16 F0 cells by MTT cell proliferation assay kit (Roche Applied Sciences, Germany). The assay was carried out according to the instruction provided by the vendor. Briefly, equal numbers of cells was plated in 96-well flat-bottomed plates and were incubated with both DTIC and the test compounds (compounds 1 to 16) at various concentrations for a period of three days. Vehicle control culture wells received only a maximum of 0.5% DMSO. Thereafter, 0.5 mg/ml of MTT reagent was added to each well and the microplate was incubated further for 4 h at 37° C. in presence of 5% CO2. Finally, the cells were solubilized by adding solubilizing solution and allowed to incubate at 37° C. overnight. After complete solubilization of the formazan crystals, the absorbance was read at 540 nm in a microplate reader (BioRad, USA). The results (mean OD±SD) obtained from quadruplicate wells were used in calculation to determine the inhibition of cell proliferation (50% of inhibitory concentration, IC50) of the test compounds (compounds 1 to 16) (Table 1).
Next, to check whether the Compound 1 can selectively kill the melanoma cells without or minimally affecting the normal cells, we assessed the comparative efficacy of the Compound 1 and DTIC on cell growth inhibition of HS.531.sk normal human skin epithelial cells. The growth inhibitory effect of the test compound and DTIC was assessed by MTT proliferation assay as described earlier (Example 17). The comparative efficacies of Compound 1 and DTIC in inhibiting the normal skin epithelial cell growth are depicted in FIG. 2.

[3] = tested on: DU145 prostate tumor cells; assay: MTT based cell proliferation assay, DU145; conditions: Homo sapiens, DU-145, read-out: Anti-tumor growth potential (IC50) in DU145
Experimental: as §1, with “Finally, the cells were solubilized by adding solubilizing solution and allowed to incubate at 37° C. overnight.” left out, “The results (mean OD±SD) obtained from quadruplicate wells were used in calculation to determine the inhibition of cell proliferation (50% of inhibitory concentration, IC50) of the test compounds (compounds 1 to 16) (Table 1).” left out
(§2) Anti-tumor growth potential of Compound 1 and DTIC were evaluated in various human tumor cells such as A549 lung tumor cells, DU145 prostate tumor cells, HT29 colon cancer cells and MCF-7 (ER^+) breast tumor cells in vitro, by using MTT based cell proliferation assay as described earlier (example 17). […]

[4] = tested on: A549 lung tumor cells; assay: MTT based cell proliferation assay, A549; conditions: Homo sapiens, read-out: Anti-tumor growth potential (IC50) in A549
Experimental: as §1, with “Finally, the cells were solubilized by adding solubilizing solution and allowed to incubate at 37° C. overnight.” left out, “The results (mean OD±SD) obtained from quadruplicate wells were used in calculation to determine the inhibition of cell proliferation (50% of inhibitory concentration, IC50) of the test compounds (compounds 1 to 16) (Table 1).” left out
as §2

[5] = tested on: human malignant melanoma A375 cells; assay: MTT based cell proliferation assay, A375 cells; conditions: A-375, 72 h, three days incubation, read-out: Cell proliferation inhibition in A375 cells, IC50
Experimental: (§3) The cytotoxic efficacies of the various selenopheno triazene compounds (compounds 1 to 16) was evaluated in both human malignant melanoma A375 cells and mouse malignant melanoma B16 F0 cells by MTT cell proliferation assay kit (Roche Applied Sciences, Germany). The assay was carried out according to the instruction provided by the vendor. Briefly, equal numbers of cells was plated in 96-well flat-bottomed plates and were incubated with both DTIC and the test compounds (compounds 1 to 16) at various concentrations for a period of three days. […] Finally, the cells were solubilized by adding solubilizing solution and allowed to incubate at 37° C. overnight. After complete solubilization of the formazan crystals, the absorbance was read at 540 nm in a microplate reader (BioRad, USA).

[6] = tested on: HT29 colon cancer cells; assay: MTT based cell proliferation assay, HT29; conditions: Homo sapiens, HT-29, read-out: Anti-tumor growth potential (IC50) in HT29
Experimental: as §1, with “Finally, the cells were solubilized by adding solubilizing solution and allowed to incubate at 37° C. overnight.” left out, “The results (mean OD±SD) obtained from quadruplicate wells were used in calculation to determine the inhibition of cell proliferation (50% of inhibitory concentration, IC50) of the test compounds (compounds 1 to 16) (Table 1).” left out
as §2

[7] = tested on: mouse malignant melanoma B16 F0 cells; assay: MTT based cell proliferation assay, B16 F0 cells; conditions: for IC50: Mus musculus, B16F0, 72 h, MTT, three days incubation, read-out: Cell proliferation inhibition in B16F0 cells, IC50
Experimental: as §3

[8] = tested on: B16 F0 melanoma xenograft; assay: B16 F0 melanoma xenograft model of C57B6J mice; format: in vivo, mouse; conditions: fourteen days, tumor weight
Experimental: In vivo efficacy of compound 1 against melanoma growth was evaluated in B 16 F0 melanoma xenograft model of C57B6J mice. C57B6J mice of 6 weeks age (body weight 18-22 g) were purchased from National Institute of Nutrition (NIN), Hyderabad (India). Animals study protocols were approved by Institutional Ethics Committee (IAEC). All the studies were performed in compliance with the Committee for the Purpose of Control and Supervision of Experiments on Animals (CPCSEA) guidelines and OECD guidelines. Animals were allowed free access to standard feed and provided charcoal filtered and UV exposed water ad libitum. The animals were maintained at a controlled temperature (24-26° C.), humidity (45-70%), and 12 h/12 h of light/dark cycle.
To induce the melanoma tumor formation, sub-confluent B16F0 cells were harvested by brief trypsinization and 1×10^6 cells were injected subcutaneously in 0.2 ml phosphate-buffered saline. Drug treatment was started after development of palpable tumors (3-5 days after implantation of the cells). Drugs were prepared in phosphate-buffered saline (10% DMSO, v/v) and either 75 mg/kg of DTIC or 25 mg/kg of compound 1 was administered daily through intra-peritoneal route. Vehicle treated control animals received only 10% DMSO in phosphate buffered saline. After fourteen days of treatment, the animals were sacrificed by CO2 inhalation and tumors were excised and weighed.

[9] = tested on: MCF-7 (ER+) breast tumor cells; assay: MTT based cell proliferation assay, MCF-7; conditions: Homo sapiens, MCF7, read-out: Anti-tumor growth potential (IC50) in MCF-7
Experimental: as §1, with “Finally, the cells were solubilized by adding solubilizing solution and allowed to incubate at 37° C. overnight.” left out, “The results (mean OD±SD) obtained from quadruplicate wells were used in calculation to determine the inhibition of cell proliferation (50% of inhibitory concentration, IC50) of the test compounds (compounds 1 to 16) (Table 1).” left out
as §2

Row | SMILES | B16 F0 melanoma tumor cell invasion vs vehicle control ([1]; 20 μg/ml, p=0.0017) | Growth inhibition of HS.531.sk normal human skin epithelial cells ([2]; 25 μg/ml) [%] | Growth inhibition of HS.531.sk normal human skin epithelial cells ([2]; 50 μg/ml) [%] | IC50 [3] [µg/mL] | IC50 [4] [µg/mL] | IC50 [5] [µg/mL] | IC50 [6] [µg/mL] | Potency of inhibition relative to Dacarbazine, mouse melanoma B16 cells ([7]; MTT IC50 comparison) [times] | IC50 [7] [µg/mL] | Inhibition in tumor growth, mouse melanoma xenograft model of C57B6J mice ([8]; 25 mg/kg daily intra-peritoneal) [%] | IC50 [9] [µg/mL] | B16 F0 melanoma tumor cell invasion vs vehicle control ([1]; 100 μg/ml) | Inhibition in tumor growth, mouse melanoma xenograft model of C57B6J mice ([8]; 75 mg/kg daily intra-peritoneal) [%]
1 | Cc1[se]c(C(N)=O)cc1/N=N/N(C)C [Compound 1, 4-[(dimethylamino)diazenyl]-5-methylselenophene-2-carboxamide] | significantly reduced; also recorded: significantly inhibited the invasion | 2.33 | 23.83 | 8.97 (≈ 34.6 µM) | 7.68 (≈ 29.6 µM) | 9.81 (≈ 37.9 µM) | 13.3 (≈ 51.3 µM) | 5 | 46.6 (≈ 180 µM) | 31.2 | 7.03 (≈ 27.1 µM) | – | –
2 | CN(C)N=Nc1[nH]cnc1C(N)=O [DTIC, 5-(3,3-dimethyl-1-trizeno)-imidazole-4-carboxamide, reference compound] | – | 34.58 | 43.46 | 58.5 (≈ 321 µM) | 95 (≈ 521 µM) | 70.1 (≈ 385 µM) | 141 (≈ 774 µM) | – | 325 (≈ 1790 µM) | – | 85.1 (≈ 467 µM) | could not significantly inhibit; also recorded: failed to inhibit the tumor cell invasion | 17
